Assay results taken from PMC12148480 (The Journal of Biological Chemistry, 2025).
“Also recorded” adds a separate entry of the source.

Columns and labels:
[1] = molecular target: T1, rat brain cortical homogenates (Rattus norvegicus, UniProt P11275); test: [3H]NCS-382 binding to rat brain cortical homogenates
T1 construct: from tissue; host or cells: rat brain cortical homogenate

CaMKIIα R433Q = molecular target: T2, CaMKIIα R433Q (Rattus norvegicus, UniProt P11275, R433Q); test: [3H]HOCPCA binding, HEK293T whole-cell homogenate, CaMKIIα R433Q; conditions: 40 nM radioligand
T2 construct: host or cells: HEK293T whole-cell homogenate
Method: (§1) Recombinant HEK293T whole-cell homogenate equilibrium binding experiments were performed similar to that described previously ([14]), using a 48-well assay format. […] The binding reaction was terminated by precipitation with ice-cold acetone (1 h at −20 °C), and radioligand-bound protein was separated from free radioligand by vacuum-filtration through glass fibre (GF/C) filters. Counts (disintegrations per minute [DPM]) were detected by liquid scintillation counting ([14]). Counts for CaMKIIα WT typically ranged from 2000 to 6000 DPM with [^3H]HOCPCA and 1800 to 5000 DPM with [^3H]O-5-HDC, slightly lower for the CaMKIIβ […] mutant. All experiments were performed in technical triplicates using at least three different batches of HEK293T cell homogenates.
(§2) Data analysis: The specific binding was determined as Total binding subtracted NSB. For the pooling of data from recombinant binding, the specific binding of the variant was normalized to the specific binding of CaMKIIα WT within each experiment.

[2] = molecular target: T3, CaMKIIα R433Q/R453Q/R469Q (Rattus norvegicus, UniProt P11275, R433Q/R453Q/R469Q); test: [3H]HOCPCA binding, HEK293T whole-cell homogenate, CaMKIIα triple mutant; conditions: CaMKIIα triple mutant RRR433/453/469QQQ
T3 construct: host or cells: HEK293T whole-cell homogenate
Method: as §1, §2

CaMKIIα R469Q = molecular target: T4, CaMKIIα R469Q (Rattus norvegicus, UniProt P11275, R469Q); test: [3H]HOCPCA binding, HEK293T whole-cell homogenate, CaMKIIα R469Q; conditions: 40 nM radioligand
T4 construct: host or cells: HEK293T whole-cell homogenate
Method: as §1, §2

CaMKIIβ L467W = molecular target: T5, CaMKIIβ L467W (Rattus norvegicus, UniProt P08413, L467W); test: [3H]HOCPCA binding, HEK293T whole-cell homogenate, CaMKIIβ L467W
T5 construct: host or cells: HEK293T whole-cell homogenate
Method: as §1, §2

CaMKIIα H395A = molecular target: T6, CaMKIIα H395A (Rattus norvegicus, UniProt P11275, H395A); test: [3H]HOCPCA binding, HEK293T whole-cell homogenate, CaMKIIα H395A; conditions: normalized to CaMKIIα WT
T6 construct: host or cells: HEK293T whole-cell homogenate
Method: as §1, §2

CaMKIIβ C533R = molecular target: T7, CaMKIIβ C533R (Rattus norvegicus, UniProt P08413, C533R); test: [3H]HOCPCA binding, HEK293T whole-cell homogenate, CaMKIIβ C533R
T7 construct: host or cells: HEK293T whole-cell homogenate
Method: as §1, §2

CaMKIIγ C518R = molecular target: T8, CaMKIIγ C518R (Rattus norvegicus, UniProt P11730, C518R); test: [3H]HOCPCA binding, HEK293T whole-cell homogenate, CaMKIIγ C518R
T8 construct: host or cells: HEK293T whole-cell homogenate
Method: as §1, §2

CaMKIIα R453Q = molecular target: T9, CaMKIIα R453Q (Rattus norvegicus, UniProt P11275, R453Q); test: [3H]HOCPCA binding, HEK293T whole-cell homogenate, CaMKIIα R453Q; conditions: normalized to CaMKIIα WT
T9 construct: host or cells: HEK293T whole-cell homogenate
Method: as §1, §2

CaMKIIβ WT = molecular target: T10, CaMKIIβ WT (Rattus norvegicus, UniProt P08413); test: [3H]HOCPCA binding, HEK293T whole-cell homogenate, CaMKIIβ WT
T10 construct: host or cells: HEK293T whole-cell homogenate
Method: as §1, §2

[3] = system: CaMKIIα (rat cortical homogenate); set-up: method as in earlier work; conditions: comparative value, [3H]HOCPCA binding, ref 1 (Leurs et al., PNAS 2021); cited from earlier work
CaMKIIβ L467W/C533R [4] = molecular target: T11, CaMKIIβ L467W/C533R (Rattus norvegicus, UniProt P08413, C533R/L467W); test: [3H]HOCPCA binding, HEK293T whole-cell homogenate, CaMKIIβ L467W/C533R
T11 construct: host or cells: HEK293T whole-cell homogenate
Method: as §1, §2

CaMKIIα W403L = molecular target: T12, CaMKIIα W403L (Rattus norvegicus, UniProt P11275, W403L); test: [3H]HOCPCA binding, HEK293T whole-cell homogenate, CaMKIIα W403L; conditions: p = 0.0038
T12 construct: host or cells: HEK293T whole-cell homogenate
Method: as §1, §2

CaMKIIα [5] = conditions: CaMKIIα binding assays previously reported; cited from earlier work
CaMKIIβ L467W/C533R [6] = molecular target: T11, CaMKIIβ L467W/C533R; test: Displacement of [3H]O-5-HDC binding in CaMKIIβ L467W/C533R HEK293T homogenate
Method: as §1, §2
Specific binding (% of control)=Top-Bottom1+10(log(IC50-[compound]))
where top and bottom represent the upper and lower plateaus of the curve, respectively.

ischemia = conditions: several mouse models of ischemia; cited from earlier work
[7] = molecular target: native CaMKIIα (rat cortical homogenate) (Rattus norvegicus, UniProt P11275); test: Competitive inhibition of [3H]O-5-HDC binding, rat cortical homogenate; set-up: native CaMKIIα (rat cortical homogenate); from tissue; host or cells: rat cerebral cortex homogenate
Description: Ki values were obtained from the One Site-Fit Ki model utilizing the following Cheng-Prusoff equation: […]
Where [RL] represents the specific radioligand concentration from each experiment and KD is the dissociation constant of [^3H]O-5-HDC acquired from saturation curves.

CaMKIIα [8] = conditions: cited from earlier work
[9] = cited from earlier work
[10] = molecular target: CaMKIIα (rat cortical homogenate); conditions: inhibition of [3H]HOCPCA binding, ref 1 (Leurs et al., PNAS 2021); read-out: Comparative Ki, [3H]HOCPCA binding; cited from earlier work
[11] = molecular target: CaMKIIα-W403L hub protein; set-up: method as in PMID 39275999; conditions: SPR, purified CaMKIIα-W403L hub; cited from earlier work
CaMKIIα-WT hub protein = molecular target: CaMKIIα-WT hub protein; set-up: method as in PMID 39275999; conditions: SPR, purified CaMKIIα-WT hub; cited from earlier work

T11 sequence (P08413 whole entry L467W/C533R): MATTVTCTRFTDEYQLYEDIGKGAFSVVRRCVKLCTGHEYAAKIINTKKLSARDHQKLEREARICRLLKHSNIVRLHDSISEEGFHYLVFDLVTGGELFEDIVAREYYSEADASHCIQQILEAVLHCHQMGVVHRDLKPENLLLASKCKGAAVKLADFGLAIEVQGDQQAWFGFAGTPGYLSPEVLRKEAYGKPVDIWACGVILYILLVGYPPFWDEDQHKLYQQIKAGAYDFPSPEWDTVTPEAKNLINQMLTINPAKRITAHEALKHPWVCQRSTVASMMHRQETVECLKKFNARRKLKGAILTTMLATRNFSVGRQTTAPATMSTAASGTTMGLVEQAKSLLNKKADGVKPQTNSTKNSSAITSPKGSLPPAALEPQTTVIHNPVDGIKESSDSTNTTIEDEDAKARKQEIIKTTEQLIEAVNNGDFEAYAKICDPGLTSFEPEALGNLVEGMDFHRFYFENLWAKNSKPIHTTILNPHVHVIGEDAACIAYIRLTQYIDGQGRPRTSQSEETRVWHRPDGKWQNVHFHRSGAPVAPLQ
native CaMKIIα (rat cortical homogenate), sequence (P11275 whole entry): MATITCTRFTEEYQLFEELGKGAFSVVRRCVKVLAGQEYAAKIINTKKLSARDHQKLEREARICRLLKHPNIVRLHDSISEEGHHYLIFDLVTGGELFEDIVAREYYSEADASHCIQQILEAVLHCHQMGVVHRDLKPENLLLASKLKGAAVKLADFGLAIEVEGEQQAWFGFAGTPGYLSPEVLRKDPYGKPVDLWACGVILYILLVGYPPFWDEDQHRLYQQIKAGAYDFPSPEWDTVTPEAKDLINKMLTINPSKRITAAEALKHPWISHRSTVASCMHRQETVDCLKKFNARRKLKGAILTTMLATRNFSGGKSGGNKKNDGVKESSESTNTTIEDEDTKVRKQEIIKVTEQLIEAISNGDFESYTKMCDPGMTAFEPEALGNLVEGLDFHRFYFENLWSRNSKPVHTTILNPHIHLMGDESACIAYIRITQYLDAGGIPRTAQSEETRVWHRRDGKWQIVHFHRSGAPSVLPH
T1 sequence (P11275 whole entry): as above
T5 sequence (P08413 whole entry L467W): as the sequence (P08413 whole entry L467W/C533R) above, with R533C counted along it
T4 sequence (P11275 whole entry R469Q): as the sequence (P11275 whole entry) above, with R469Q counted along it
T12 sequence (P11275 whole entry W403L): as the sequence (P11275 whole entry) above, with W403L counted along it
T9 sequence (P11275 whole entry R453Q): as the sequence (P11275 whole entry) above, with R453Q counted along it
T8 sequence (P11730 whole entry C518R): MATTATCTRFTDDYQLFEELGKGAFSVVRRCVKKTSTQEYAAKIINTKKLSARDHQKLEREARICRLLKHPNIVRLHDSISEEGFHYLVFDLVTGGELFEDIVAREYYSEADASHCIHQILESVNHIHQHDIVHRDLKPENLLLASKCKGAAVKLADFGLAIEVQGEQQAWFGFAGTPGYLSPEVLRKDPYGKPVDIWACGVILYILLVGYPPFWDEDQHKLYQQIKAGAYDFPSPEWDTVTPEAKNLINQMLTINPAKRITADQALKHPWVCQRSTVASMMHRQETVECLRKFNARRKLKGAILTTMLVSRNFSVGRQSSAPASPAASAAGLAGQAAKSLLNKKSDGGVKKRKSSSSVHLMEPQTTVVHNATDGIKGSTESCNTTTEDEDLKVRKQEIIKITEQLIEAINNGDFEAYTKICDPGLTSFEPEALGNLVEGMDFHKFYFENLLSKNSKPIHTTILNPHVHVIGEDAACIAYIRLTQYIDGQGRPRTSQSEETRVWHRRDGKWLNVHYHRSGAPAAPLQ
T6 sequence (P11275 whole entry H395A): as the sequence (P11275 whole entry) above, with H395A counted along it
T10 sequence (P08413 whole entry): as the sequence (P08413 whole entry L467W/C533R) above, with W467L, R533C counted along it
T2 sequence (P11275 whole entry R433Q): as the sequence (P11275 whole entry) above, with R433Q counted along it
T7 sequence (P08413 whole entry C533R): as the sequence (P08413 whole entry L467W/C533R) above, with W467L counted along it
T3 sequence (P11275 whole entry R433Q/R453Q/R469Q): as the sequence (P11275 whole entry) above, with R433Q, R453Q, R469Q counted along it

In the case of `O=C(O)Cc1c(Oc2ccccc2Cl)cc(I)c(O)c1I` [compound 2], the affinity [1] is reported as “mid-micromolar” and the “change in affinity in comparison to O-5-HDC” value [1] is reported as 100 X.
In the case of `[3H]C1(O)C=C(C(=O)O)CC1` (stereo not drawn) [[^3H]HOCPCA], the “specific [3H]HOCPCA binding” value (CaMKIIα R433Q) is reported as “completely abolished”, the “specific [3H]HOCPCA binding” value [2] is reported as “completely binding-deficient” and the “specific [3H]HOCPCA binding” value (CaMKIIα R469Q) is reported as “completely abolished”. For the same compound, the “specific [3H]HOCPCA binding” value (CaMKIIβ L467W) was “no detected specific [^3H]HOCPCA binding; also recorded: Neither of these led to any noticeable radioligand binding”, the “specific [3H]HOCPCA binding remaining” value (CaMKIIα H395A) was 7–9% and the “specific [3H]HOCPCA binding” value (CaMKIIβ C533R) was “no specific binding”. For the same compound, the “specific [3H]HOCPCA binding” value (CaMKIIγ C518R) was “no specific binding”, the “specific [3H]HOCPCA binding remaining” value (CaMKIIα R453Q) was 7–9% and the “specific [3H]HOCPCA binding” value (CaMKIIβ WT) was “no detected specific [^3H]HOCPCA binding”. The Bmax [3] was 43 pmol/mg protein, the Kd [3] was 260 nM and the “pKd ± SEM” value [3] was 6.6 ± 0.06. The “specific [3H]HOCPCA binding” value (CaMKIIβ L467W/C533R [4]) was “no detected specific [^3H]HOCPCA binding; also recorded: Neither of these led to any noticeable radioligand binding” and the “specific [3H]HOCPCA binding” value (CaMKIIα W403L) was 70 % of WT.
For `O=C(O)Cc1cc(O)ccc1Oc1ccccc1Cl`, the Ki (CaMKIIα [5]) is listed as 27 nM.
For `O=C(O)CCCO` [GHB, γ-hydroxybutyric acid], the IC50 (CaMKIIβ L467W/C533R [6]; IC50, displacement of [3H]O-5-HDC) is listed as 710000 nM, the IC50 (CaMKIIβ L467W/C533R [6]; pIC50 (value in parentheses after IC50), displacement of [3H]O-5-HDC) is listed as 676000 nM and the neuroprotection (ischemia) is listed as “neuroprotective”. The “lower affinity in displacing [3H]O-5-HDC than [3H]HOCPCA” value ([7]; rat cortical homogenate) was 10 fold and the “effect on CaMKIIα activity (syntide-2 phosphorylation)” value (CaMKIIα [8]) was “not to affect CaMKIIα activity”.
For `O=C(O)Cc1cc(O)c(I)cc1Oc1ccccc1Cl` [compound 1], the affinity [1] was “mid-micromolar” and the “change in affinity in comparison to O-5-HDC” value [1] was 100 X.
In the case of `O=C(O)Cc1cc(O)ccc1Nc1c(Cl)cccc1Cl` [5-HDC, 5-hydroxydiclofenac], the chemical stability [9] is listed as “chemically unstable”.
In the case of `O=C(O)C1=CC(O)CC1` (stereo not drawn) [HOCPCA, 3-hydroxycyclopent-1-enecarboxylic acid], the neuroprotection (ischemia) is listed as “neuroprotective”, the Ki ([7]; Ki) is listed as 1270 nM and the Ki ([7]; pKi ± S.E.M., inhibition of [3H]O-5-HDC binding, rat cortical homogenate, n = 4) is listed as 1170 nM. The “lower affinity in displacing [3H]O-5-HDC than [3H]HOCPCA” value ([7]; rat cortical homogenate) was 10 fold, the Ki [10] was 130 nM and the “effect on CaMKIIα activity (syntide-2 phosphorylation)” value (CaMKIIα [8]) was “not to affect CaMKIIα activity”.
For `O=C(O)Cc1cn2nc(-c3ccc(Cl)cc3)ccc2n1` [PIPA], the Kd [11] is listed as 2800 nM and the Kd (CaMKIIα-WT hub protein) is listed as 1400 nM.
